Values after ≈ are worked out from the molar mass of the structure shown.
Experiments:
Type in all cases: functional
Streptococcus pneumoniae = test: Antibacterial activity against Streptococcus pneumoniae CL2883 by broth microdilution technique
Staphylococcus aureus = test: Antibacterial activity against Staphylococcus aureus MB2865 by broth microdilution technique
Enterococcus faecalis = test: Antibacterial activity against Enterococcus faecalis MB5407 by broth microdilution technique
Escherichia coli = test: Antibacterial activity against Escherichia coli MB2884 by broth microdilution technique
Haemophilus influenzae = test: Antibacterial activity against Haemophilus influenzae MB5363 by broth microdilution technique
Klebsiella pneumoniae = test: Antibacterial activity against Klebsiella pneumoniae MB4005 by broth microdilution technique

Row | SMILES | MIC (Streptococcus pneumoniae) [µg/mL] | MIC (Staphylococcus aureus) [µg/mL] | MIC (Enterococcus faecalis) [µg/mL] | MIC (Escherichia coli) [µg/mL] | MIC (Haemophilus influenzae) [µg/mL] | MIC (Klebsiella pneumoniae) [µg/mL]
1 | CC[C@H]1OC(=O)[C@H](C)[C@@H](O[C@H]2C[C@@](C)(OC)[C@@H](N)[C@H](C)O2)[C@H](C)[C@@H](O[C@@H]2O[C@H](C)C[C@H](N(C)C)[C@H]2O)[C@](C)(O)C[C@@H](C)N(C)C[C@H](C)[C@@H](O)[C@]1(C)O | ≤ 0.06 | 1 (≈ 1.34 µM) | 2 (≈ 2.67 µM) | 0.13 (≈ 0.174 µM) | 0.25 (≈ 0.334 µM) | 0.13 (≈ 0.174 µM)
2 | CC[C@H]1OC(=O)[C@H](C)[C@@H](O[C@H]2C[C@@](C)(OC)[C@@H](O)[C@H](C)O2)[C@H](C)[C@@H](O[C@@H]2O[C@H](C)C[C@H](N(C)C)[C@H]2O)[C@](C)(O)C[C@@H](C)CN(C)[C@H](C)[C@@H](O)[C@]1(C)O [AZITHROMYCIN] | 0.03 (≈ 0.0401 µM) | 1 (≈ 1.34 µM) | 4 (≈ 5.34 µM) | 1 (≈ 1.34 µM) | 0.5 (≈ 0.668 µM) | 2 (≈ 2.67 µM)
3 | CC[C@H]1OC(=O)[C@H](C)[C@@H](O[C@H]2C[C@@](C)(OC)[C@@H](O)[C@H](C)O2)[C@H](C)[C@@H](O[C@@H]2O[C@H](C)C[C@H](N(C)C)[C@H]2O)[C@](C)(O)C[C@@H](C)C(=O)[C@H](C)[C@@H](O)[C@]1(C)O [ERYTHROMYCIN] | 0.02 (≈ 0.0273 µM) | 0.25 (≈ 0.341 µM) | 1 (≈ 1.36 µM) | 32 (≈ 43.6 µM) | 2 (≈ 2.73 µM) | 32 (≈ 43.6 µM)
4 | CC[C@H]1OC(=O)[C@H](C)[C@@H](O[C@H]2C[C@@](C)(OC)[C@@H](O)[C@H](C)O2)[C@H](C)[C@@H](O[C@@H]2O[C@H](C)C[C@H](N(C)C)[C@H]2O)[C@](C)(O)C[C@@H](C)N(C)C[C@H](C)[C@@H](O)[C@]1(C)O [L-701677] | 0.03 (≈ 0.0401 µM) | 0.5 (≈ 0.668 µM) | 2 (≈ 2.67 µM) | 1 (≈ 1.34 µM) | 1 (≈ 1.34 µM) | 1 (≈ 1.34 µM)

Reference: ChEMBL document CHEMBL3865804, “A Gestalt approach to Gram-negative entry” (2016)
